Source: patent US20260072027A1, “Peptides And Method” (Queen Mary University of London, priority 2022, published 2026)
“And” between values parts separate entries of the source, which are not always exact repeats. Identical values can stand only once. “Also recorded” adds a separate entry of the source. Where no end group is shown, it is not given here.

Columns and labels:
serum IgG autoantibodies = experiment: ELISA for autoantibody detection: serum antibody binding to native and oxPTM insulin peptides; set-up: species or system human
Outline: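 Plates coated overnight at 4 °C with native or HOCl/•OH-oxidised insulin peptides (10 μg/ml, carbonate buffer pH 9.6), blocked with 5% BSA, incubated 2 h with sera at 1:200, then probed with anti-human IgG-HRP and developed with TMB, read at 450 nm. Positivity cut-off: healthy-control mean O.D. plus 3×SEM.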

[1] = test system: autoantibodies to oxPTM-INS; experiment: Competitive displacement ELISA, plate coated with oxidised insulin; format: binding, human; settings: for inhibition of type 1 diabetes serum binding to oxPTM-INS (in words): sera pre-incubated with peptide competitor
Protocol: A competitive displacement assay was performed to map the exact epitope, namely the exact amino acid sequence binding specificities and to test the binding to native peptides versus oxidised insulin peptides. The binding to the peptide was done by direct ELISA on the native or modified peptides or by competition ELISA. Initially native synthetic peptide was oxidised by exposing to 0.05 mM CuCl2; 90 mM H2O2; 10 mM NaOCl. Native and modified peptides were fractionated by AKTA to evaluated changes in molecular profile. AKTA fractions were then tested by ELISA for reactivity (FIGS. 2 and 3). We next perform competition ELISA with the native peptides and peptides exposed to 0.05 mM CuCl2; 90 mM H2O2; 10 mM NaOCl. Serum samples were pre-incubated with either native insulin peptides or oxidised insulin peptides. Finally, based on the amino acid sequence of the identified peptides we predicted the amino acids that would be oxidised by ^●OH and HOCl and designed synthetic peptides that contain the oxidised amino acids in the synthesis. Synthetic peptides were produced by standard commercially available methods, specifically by Peptide Protein Research Ltd. Briefly, peptide synthesis was performed by automated solid phase peptide synthesis (SPPS), which was followed by purification. Each individual amino acid was added to the growing chain according to the sequence. Where specified, dihydroxyphenylalanine was added to replace Tyr or cysteate were added to replace Cys. Similarly, these peptides were tested by competition ELISA. The table below describe the different competition ELISA performed:
Serum samples from children with type 1 diabetes were pre-incubated with the synthetic peptides before they were added to the native insulin or oxidised that were previously coated on the ELISA plate. If the antibodies in the serum sample bind to the peptide they will no longer bind to the insulin or oxidised insulin on the plate-competition ELISA. 1:200 dilutions of serum samples from T1D serum samples were pre-incubated for 2 hr at room temperature with the various peptides as shown in the table above. After incubation, serum/peptide mix was added to the ELISA plate previously coated overnight with either native insulin or oxidised insulin for an additional 2 hr incubation. Plates were then washed in a plate washer three times with PBS 0.05% tween. After washing, 100 ul of anti-human IgG diluted 1:1000 in 1% milk-PBS 0.05% tween were added for additional 1 hour and 30 min incubation. After washing, ELISA was developed by adding 100 ul of TMB (10 mg/ml in DMSO) in 10 ml of 0.1 M sodium acetate plus 2 ul of H2O2. Reaction was stopped by adding 0.5 M H2SO4 (usually 20 min for insulin ELISA).
To assess the binding specificity of serum samples to identified peptides, a competitive ELISA was performed. The ELISA was carried out following the method described above, except that the serum samples were pre-incubated for 2 h with and without 10 μg/ml peptides as competitors, before adding the serum samples to the insulin coated ELISA plate.

[2] = Study cohort 1, in house modifications

reduced binding to oxidised whole insulin ([1]; type 1 diabetes sera pre-incubated with peptide, listed as Oxidised peptide 3) | % binders, Healthy controls (serum IgG autoantibodies; [2]) [%] | Mean ± SEM (absorbance, OD), Healthy controls (serum IgG autoantibodies; [2]) | % binders, Type 1 diabetes (serum IgG autoantibodies; Study cohort 1, in house modifications, cut-off = mean of healthy controls to Nt-INSP plus 3 SEM) [%] | Mean ± SEM (absorbance, OD), Type 1 diabetes (serum IgG autoantibodies; Study cohort 1 sera, in house modifications) | type 1 diabetes binders (IgG autoantibody reactivity) (serum IgG autoantibodies; Study cohort 2, N = 18) [%] | Substance | Antibody reactivity of serum samples (in words) (serum IgG autoantibodies; ELISA) | inhibition of type 1 diabetes serum binding to oxPTM-INS (in words) [1] | inhibition of type 1 diabetes serum binding to oxPTM-INS (in words) ([1]; listed as Nt-INSP-4)
35-80% and 40-80% |  |  |  |  |  | oxPTM-INSP-3: oxidised forms of insulin peptide 3 (A:12-21), in house oxidised or in silico derivatives (SLYQLENYCN; not fully specified (N-terminus); also: oxidised forms, in house oxidised or in silico derivatives, modified residues not defined) | High background binding in healthy controls; also recorded: high background binding of healthy controls | strongly inhibited binding to oxPTM-INS; also recorded: able to inhibit the binding | 
 | 20 | 0.306 ± 0.032 | 50 | 0.469 ± 0.047 | 38.9 | LVEALYLVCGERGFFYTPKT [insulin B:11-30 native peptide] |  |  | comparable inhibition as oxPTM-INSP-4; also recorded: comparable inhibition compared to oxPTM-INSP-4; also recorded: blocked type 1 diabetes serum binding to oxPTM-INS like oxPTM-INSP-4
